Reference: patent US20240052582A1, “COMPOSTABLE TURF WITH DECOMPOSITION INHIBITOR” (Polytex Sportbelage Produktions-GmbH, priority 2017, published 2024)

Assay: Amount of decomposition inhibitor necessary for a minimum life expectancy of compostable artificial or hybrid turf
Conditions: inhibitor within backing
Source text: Due to the wide variety of use case scenarios, stadium architectures and climatic conditions, the amount of decomposition inhibitor that ensures a sufficient life expectancy without unduly delaying the decomposition process is preferably determined empirically.

## Oc1cc(Cl)ccc1Oc1ccc(Cl)cc1Cl [Triclosan, 5-chlor-2-(2,4-dichlorphenoxy)-phenol]
Life expectancy at least 6 Month
  Amount of Decomposition inhibitor necessary for a life expectancy of the turf material of at least [. . .] 6 Month: 0.0005% by % by weight of backing
Life expectancy at least 12 Month
  Amount of Decomposition inhibitor necessary for a life expectancy of the turf material of at least [. . .] 12 Month: 0.001% by % by weight of backing
